Results published in US20220347175A1, “PYRIDAZINONE DERIVATIVE” (Sumitomo Dainippon Pharma Co., Ltd., priority 2018, published 2022).

Legend:
human Nav1.1 = molecular target: T1, human Nav1.1 (Homo sapiens, UniProt P35498); assay: Amplification of Nav1.1-derived voltage-dependent sodium current (Nav1.1 current), cell line stably expressing human Nav1.1, automated patch clamp; format: cell-based
T1 construct: host or cells: HEK293
Procedure, shortened: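 Automated whole-cell voltage-clamp recordings used HEK293 cells stably expressing human Nav1.1, keeping only cells with >500 pA current, with currents evoked by ramp voltage. Compounds were applied in extracellular fluid with 1% DMSO, and amplification (%) was computed from peak current or AUC after versus before addition.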

human Nav1.5 = molecular target: T2, human Nav1.5 (Homo sapiens, UniProt Q14524); assay: Amplification of Nav1.5-derived voltage-dependent sodium current (Nav1.5 current), cell line stably expressing human Nav1.5, automated patch clamp; format: cell-based
T2 construct: expressed in transfected cells; host or cells: CHO-K1 (T-REx System, ThermoFisher Scientific)
T2 sequence (Q14524 1-2015 isoform Q14524-2): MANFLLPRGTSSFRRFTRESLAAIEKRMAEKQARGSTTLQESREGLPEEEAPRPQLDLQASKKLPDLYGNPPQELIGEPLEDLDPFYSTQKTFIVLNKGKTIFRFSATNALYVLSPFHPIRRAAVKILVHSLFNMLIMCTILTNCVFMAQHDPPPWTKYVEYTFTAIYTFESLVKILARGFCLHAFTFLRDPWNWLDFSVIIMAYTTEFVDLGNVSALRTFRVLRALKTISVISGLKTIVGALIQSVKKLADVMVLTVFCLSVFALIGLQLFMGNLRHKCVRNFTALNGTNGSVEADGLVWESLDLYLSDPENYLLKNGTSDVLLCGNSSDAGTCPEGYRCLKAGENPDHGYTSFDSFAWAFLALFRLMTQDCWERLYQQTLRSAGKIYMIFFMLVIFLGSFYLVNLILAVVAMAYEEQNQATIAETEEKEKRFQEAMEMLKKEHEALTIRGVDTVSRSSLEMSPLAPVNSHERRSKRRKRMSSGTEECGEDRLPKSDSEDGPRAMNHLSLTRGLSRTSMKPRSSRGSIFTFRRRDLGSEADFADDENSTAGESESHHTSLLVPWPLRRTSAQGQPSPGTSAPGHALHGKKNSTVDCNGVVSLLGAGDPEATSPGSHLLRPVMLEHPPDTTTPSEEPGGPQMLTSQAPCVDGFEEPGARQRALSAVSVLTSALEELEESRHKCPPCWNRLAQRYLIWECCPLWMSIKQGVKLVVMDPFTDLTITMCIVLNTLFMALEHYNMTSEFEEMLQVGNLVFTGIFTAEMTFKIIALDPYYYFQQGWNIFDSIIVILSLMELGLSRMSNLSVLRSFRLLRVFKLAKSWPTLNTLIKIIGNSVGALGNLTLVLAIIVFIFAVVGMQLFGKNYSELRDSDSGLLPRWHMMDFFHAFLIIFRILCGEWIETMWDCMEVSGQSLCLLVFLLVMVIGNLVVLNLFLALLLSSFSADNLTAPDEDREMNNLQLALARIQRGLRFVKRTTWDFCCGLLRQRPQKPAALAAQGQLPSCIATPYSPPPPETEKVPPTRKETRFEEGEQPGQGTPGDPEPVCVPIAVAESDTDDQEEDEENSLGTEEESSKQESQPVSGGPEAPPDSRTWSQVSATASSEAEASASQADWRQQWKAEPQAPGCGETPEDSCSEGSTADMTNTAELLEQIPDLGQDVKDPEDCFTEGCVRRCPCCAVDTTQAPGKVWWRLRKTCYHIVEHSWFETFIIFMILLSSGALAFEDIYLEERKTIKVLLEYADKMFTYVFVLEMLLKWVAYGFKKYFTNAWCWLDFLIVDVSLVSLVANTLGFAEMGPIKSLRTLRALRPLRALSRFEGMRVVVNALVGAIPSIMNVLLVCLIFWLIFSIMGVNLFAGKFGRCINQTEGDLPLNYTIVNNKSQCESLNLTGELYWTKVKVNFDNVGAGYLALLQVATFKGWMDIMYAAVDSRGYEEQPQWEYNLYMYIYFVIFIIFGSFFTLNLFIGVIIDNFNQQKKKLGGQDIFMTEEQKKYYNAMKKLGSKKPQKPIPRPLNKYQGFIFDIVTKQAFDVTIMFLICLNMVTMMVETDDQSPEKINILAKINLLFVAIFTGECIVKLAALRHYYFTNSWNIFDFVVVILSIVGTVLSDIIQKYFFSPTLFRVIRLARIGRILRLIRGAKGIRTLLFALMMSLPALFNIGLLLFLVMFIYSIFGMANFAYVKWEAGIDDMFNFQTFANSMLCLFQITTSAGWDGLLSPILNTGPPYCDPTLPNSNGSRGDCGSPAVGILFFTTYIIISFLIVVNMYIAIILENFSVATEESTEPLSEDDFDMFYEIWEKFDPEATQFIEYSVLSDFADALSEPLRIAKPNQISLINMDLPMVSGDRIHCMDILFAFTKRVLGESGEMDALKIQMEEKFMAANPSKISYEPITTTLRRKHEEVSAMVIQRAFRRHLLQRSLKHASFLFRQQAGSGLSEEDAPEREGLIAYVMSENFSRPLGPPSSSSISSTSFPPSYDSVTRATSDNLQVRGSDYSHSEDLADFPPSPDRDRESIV
Procedure: Test 2: Evaluation of the Amplification in Nav1.5-Derived Voltage-Dependent Sodium Current (Nav1.5 Current) by Using a Cell Line Stably Expressing Human Nav1.5
A CHO-K1 cell line (Chinese hamster ovary) stably expressing human Nav1.5 (Gene Bank Accession No: P000326.2) was obtained by using purchased T-Rex System (ThermoFisher Scientific, USA), and used for the present test. The effect of test compounds on the amplification of Nav1.5 current was evaluated by using a cell line stably expressing human Nav1.5 and HTS automated patch clamp system, similarly in the method using Nav1.1. In other words, test compounds were added in an extracellular fluid which contained 1% DMSO and 500 nmol/L Tetrodotoxin (TTX), and evaluated as a change of the peak value of Nav1.5 current and the area under the curve (AUC). The induction and the measurement of Nav1.5 current, the pharmacologic effect on Nav1.5 current, and a method for pharmacological evaluation were carried out by the same method as in Nav1.1.

[1] = compound 3 μmol/L, HEK293 stably expressing human Nav1.1
[2] = compound 3 μmol/L, CHO-K1 stably expressing human Nav1.5
[3] = 10 μmol/L compound, change of the area under the curve of Nav1.1 current (Test Result 1), read-out: Nav1.1 current amplification rate (%)
[4] = 10 μmol/L compound, change of the area under the curve of Nav1.5 current (Test Result 1), read-out: Nav1.5 current amplification rate (%)
[5] = compound 1 μmol/L, HEK293 stably expressing human Nav1.1
[6] = compound 1 μmol/L, CHO-K1 stably expressing human Nav1.5
[7] = 10 μmol/L compound, change of the area under the curve of Nav1.1 current (Test Result 1)
[8] = 10 μmol/L compound, change of the area under the curve of Nav1.5 current (Test Result 1)
[9] = compound 1 μmol/L, HEK293 stably expressing human Nav1.1, read-out: Nav1.1 current amplification rate (%)
[10] = compound 1 μmol/L, CHO-K1 stably expressing human Nav1.5, read-out: Nav1.5 current amplification rate (%)

| Compound | activation at 10 µM (human Nav1.1; [3]) [%] | activation at 10 µM (human Nav1.5; [4]) [%] | Nav1.1 current amplification rate (%) (human Nav1.1; [7]) | Nav1.5 current amplification rate (%) (human Nav1.5; [8]) | also measured |
| --- | --- | --- | --- | --- | --- |
| CC1CC=C(c2ccc(=O)n(CC(=O)N3CCc4c(-c5ccn(C)n5)cccc43)n2)CC1 (racemic) [Example 252] |  |  |  |  | Nav1.1 current amplification rate (%) (human Nav1.1; [1]): 254%; Nav1.5 current amplification rate (%) (human Nav1.5; [2]): 31% |
| O=C(Cn1nc(N2CCC3(CCCC3)C2)ccc1=O)Nc1ccn2ccnc2c1 [Example 167] | 129 | 21 |  |  |  |
| Cc1cc(NC(=O)Cn2nc(C3=CCC(C)CC3)ccc2=O)cn2ncnc12 (racemic) [Example 349] |  |  |  |  | Nav1.1 current amplification rate (%) (human Nav1.1; [5]): 101%; Nav1.5 current amplification rate (%) (human Nav1.5; [6]): 24% |
| CC1(C)CC=C(c2ccc(=O)n(CC(=O)N3CCc4c(C5CN(C6COC6)C5)cccc43)n2)CC1 [Example 438] |  |  |  |  | Nav1.1 current amplification rate (%) (human Nav1.1; [1]): 404%; Nav1.5 current amplification rate (%) (human Nav1.5; [2]): 25% |
| O=C(Cn1nc(N2CCC3(CCC3)C2)ccc1=O)Nc1ccn2ccnc2c1 [Example 177] | 169 | 16 |  |  |  |
| COc1cnc(C2=CCN(C(=O)Cn3nc(C4=CCC(C)CC4)ccc3=O)CC2)cn1 (racemic) [Example 399] |  |  | 102 | 11 |  |
| COc1cc(C2=CCC(C(F)(F)F)CC2)nn(CC(=O)N2CCN(c3cncc(F)c3)CC2)c1=O (racemic) [Example 482] |  |  | 219 | 8 |  |
| CC1CCN(c2ccc(=O)n(CC(=O)Nc3cc(F)c4ocnc4c3)n2)CC1 [Example 216] | 121 | 3 |  |  |  |
| O=C(Cn1nc(C2=CCC(F)(F)CC2)ccc1=O)Nc1ccc(C(F)(F)F)nc1 [Example 103] | 58 | 13 |  |  |  |
| CC1CC=C(c2ccc(=O)n(CC(=O)Nc3ccn4ccnc4c3)n2)CC1 (stereo not drawn) [Example 532] | 239 | 47 |  |  |  |
| CC1CC=C(c2ccc(=O)n(CC(=O)N3CCN(c4cnn(C)c4)CC3)n2)CC1 (stereo not drawn) [Example 415] |  |  | 93 | 2 |  |
| Cc1cc(N2CCC3(CCC3)C2)nn(CC(=O)N2CCc3c(N4CCN(C)CC4)cccc32)c1=O [Example 225] | 146 | 2 |  |  |  |
| COc1ccc2c(c1)CCN2C(=O)Cn1nc(C2=CCC(C)(C)CC2)ccc1=O [Example 430] |  |  | 28 | 22 |  |
| CC1CC=C(c2ccc(=O)n(CC(=O)N3CCN(c4ccncc4)CC3)n2)CC1 (racemic) [Example 261] |  |  | 60 | 1 |  |
| COc1cc(-c2cc(Cl)cs2)nn(CC(=O)Nc2ccn3ccnc3c2)c1=O [Example 466] |  |  | 233 | 38 |  |
| CC1(C)CC=C(c2ccc(=O)n(CC(=O)N3CCN(c4cccnc4)CC3)n2)C1 [Example 508] | 24 | -3 |  |  |  |
| CN1CCN(c2cccc3c2CCN3C(=O)Cn2nc(N3CCC(C)(C)CC3)ccc2=O)CC1 [Example 223] | 46 | 0 |  |  |  |
| O=C(Cn1nc(C2=CCC3(CC2)CC3)ccc1=O)Nc1ccn2ncnc2c1 [Example 512, 2-[6-oxo-3-(spiro[2.5]oct-5-en-6-yl)pyridazin-1(6H)-yl]-N-([1,2,4]triazolo[1,5-a]pyridin-7-yl)acetamide] |  |  |  |  | activation at 1 µM (human Nav1.1; [9]): 103%; activation at 1 µM (human Nav1.5; [10]): 34% |
| CC1CC=C(c2ccc(=O)n(CC(=O)N3CCc4c3ccnc4Cl)n2)CC1 (racemic) [Example 247] |  |  | 53 | 43 |  |
| COc1nc2cc(NC(=O)Cn3nc(C4=CCC(C)(C)CC4)c(OC)cc3=O)ccc2o1 [Example 491] |  |  |  |  | activation at 3 µM (human Nav1.1; compound 3 μmol/L, HEK293 stably expressing human Nav1.1, read-out: Nav1.1 current amplification rate (%)): 157%; activation at 3 µM (human Nav1.5; compound 3 μmol/L, CHO-K1 stably expressing human Nav1.5, read-out: Nav1.5 current amplification rate (%)): 22% |

| Compound | activation at 10 µM (human Nav1.1; [3]) [%] | activation at 10 µM (human Nav1.5; [4]) [%] | Nav1.1 current amplification rate (%) (human Nav1.1; [7]) | Nav1.5 current amplification rate (%) (human Nav1.5; [8]) | also measured |
| --- | --- | --- | --- | --- | --- |
| CC1CC=C(c2ccc(=O)n(CC(=O)N3CCc4c(C5CN(C)C5)cccc43)n2)CC1 (racemic) [Example 300] |  |  |  |  | Nav1.1 current amplification rate (%) (human Nav1.1; [1]): 140%; Nav1.5 current amplification rate (%) (human Nav1.5; [2]): 55% |
| CN1CCN(c2cccc3c2CCN3C(=O)Cn2nc(C3=CCC(C)(C)CC3)ccc2=O)CC1 [Example 433] |  |  | 192 | 10 |  |
| CC1CC=C(c2ccc(=O)n(CC(=O)N3CC=C(c4cncnc4)CC3)n2)CC1 (racemic) [Example 398] |  |  | 175 | 29 |  |
| O=C(Cn1nc(N2CCC3(CCC3)C2)ccc1=O)N1CCc2cc(N3CCOCC3)ccc21 [Example 184] | 35 | 16 |  |  |  |
| Cc1cc(=O)n(CC(=O)Nc2ccc3ocnc3c2)nc1N1CCC2(CCCC2)C1 [Example 194] | 252 | 33 |  |  |  |
| CC1CCC(c2ccc(=O)n(CC(=O)N3CCc4c(N5CCOCC5)cccc43)n2)CC1 (single isomer, unassigned) [Example 535] |  |  | 277 | 10 |  |
| O=C(Cn1nc(N2CCC3(CCC3)C2)c(N2CCCC2)cc1=O)Nc1ccc2ocnc2c1 [Example 208] | 200 | 18 |  |  |  |
| O=C(Cn1nc(N2CCC3(CCC3)CC2)ccc1=O)Nc1ccc2ocnc2c1 [Example 126] | 167 | 13 |  |  |  |
| Cc1cc(NC(=O)Cn2nc(C3=CCC(C)CC3)ccc2=O)cc2ncnn12 (racemic) [Example 352] |  |  |  |  | Nav1.1 current amplification rate (%) (human Nav1.1; [5]): 155%; Nav1.5 current amplification rate (%) (human Nav1.5; [6]): 34% |
| O=C(Cn1nc(N2CCC3(CCCC3)C2)ccc1=O)Nc1cccc(-n2ccnc2)c1 [Example 123] | 246 | 30 |  |  |  |
| Cc1ncc(-c2cccc3c2CCN3C(=O)Cn2nc(C3=CCCCC3)ccc2=O)cn1 [Example 518] |  |  |  |  | activation at 1 µM (human Nav1.1; [9]): 344%; activation at 1 µM (human Nav1.5; [10]): 9% |
| CC1(C)CC=C(c2ccc(=O)n(CC(=O)N3CCc4c(N5CCOCC5)cccc43)n2)C1 [Example 475] |  |  | 633 | 70 |  |
| Cc1cc(N2CCC3(CCC3)C2)nn(CC(=O)Nc2ccc3ocnc3c2)c1=O [Example 204] | 189 | 8 |  |  |  |
| COc1cnc(C)c(N2CCN(C(=O)Cn3nc(C4=CCC(C)CC4)ccc3=O)CC2)c1 (stereo not drawn) [Example 418] |  |  |  |  | Nav1.1 current amplification rate (%) (human Nav1.1; [1]): 105%; Nav1.5 current amplification rate (%) (human Nav1.5; [2]): 7% |
| CC1CCN(c2ccc(=O)n(CC(=O)Nc3ccc4ocnc4c3)n2)CC1 [Example 50, N-(1,3-benzooxazol-5-yl)-2-[3-(4-methylpiperidin-1-yl)-6-oxopyridazin-1(6H)-yl]acetamide] | 155 | 4 |  |  |  |
| O=C(Cn1nc(C2=CCC(F)(F)CC2)ccc1=O)N1CCN(c2cncc(F)c2)CC1 [Example 489] |  |  | 29 | 0 |  |
| CC1CCN(c2ccc(=O)n(CC(=O)Nc3cncc(Cl)c3)n2)CC1 [Example 63] |  |  | 49 | 3 |  |
| O=C(Cn1nc(C2=CCCCC2)ccc1=O)Nc1ccn2ccnc2c1 [Example 458] |  |  | 24 | 0 |  |
| C[C@H]1CC=C(c2ccc(=O)n(CC(=O)Nc3ccc4ncnn4c3)n2)CC1 [Example 540, 2-{3-[(4R)-4-methylcyclohex-1-en-1-yl]-6-oxopyridazin-1(6H)-yl}-N-([1,2,4]triazolo[1,5-a]pyridin-6-yl)acetamide] |  |  |  |  | activation at 1 µM (human Nav1.1; [9]): 112%; activation at 1 µM (human Nav1.5; [10]): 15% |
